From ChEMBL document CHEMBL3885881, “DrugMatrix”

Species on record: Rattus norvegicus
Assay: DrugMatrix - Regimen: Daily Repeat
Format: toxicity, organism-based, Sprague-Dawley
Design: regimen Daily Repeat, gender Male, age 6-8 weeks
Conditions: in vivo, po, route oral GAVAGE, vehicle .5 % CMC; for ABSOLUTE BASOPHIL / ABSOLUTE EOSINOPHIL / ABSOLUTE LYMPHOCYTE / ABSOLUTE MONOCYTE / ABSOLUTE SEGMENTED NEUTROPHIL / BASOPHIL / EOSINOPHIL / ERYTHROCYTE COUNT / HEMATOCRIT / HEMOGLOBIN / LEUKOCYTE COUNT / LYMPHOCYTE / MEAN CORPUSCULAR HEMOGLOBIN / MEAN CORPUSCULAR HEMOGLOBIN CONCENTRATION / MEAN CORPUSCULAR VOLUME / MONOCYTE / NEUTROPHIL / NUCLEATED RED BLOOD CELLS / PLATELET COUNT: tissue Blood; for ALANINE AMINOTRANSFERASE / ALBUMIN / ALKALINE PHOSPHATASE / ASPARTATE AMINOTRANSFERASE / BLOOD UREA NITROGEN / CARBON DIOXIDE / CHLORIDE / CHOLESTEROL / CREATINE PHOSPHOKINASE / CREATININE / GLUCOSE / LACTATE DEHYDROGENASE / LIPASE / PHOSPHORUS / POTASSIUM / SODIUM / TOTAL BILIRUBIN / TOTAL PROTEIN / URIC ACID: tissue Plasma
[1] = 0.006 mg/kg, 72 h, dose level Low, time 3 day
[2] = 0.006 mg/kg, 120 h, dose level Low, time 5 day
[3] = 0.04 mg/kg, 72 h, dose level High, time 3 day
[4] = 0.04 mg/kg, 120 h, dose level High, time 5 day

## C=C1/C(=C\C=C2/CCC[C@]3(C)[C@@H]([C@H](C)CCCC(C)(C)O)CC[C@@H]23)C[C@@H](O)C[C@@H]1O [CALCITRIOL]
[1]
  ABSOLUTE BASOPHIL: 0 CELLS/uL
  ABSOLUTE EOSINOPHIL: 45.67 CELLS/uL
  ABSOLUTE LYMPHOCYTE: 10032.33 CELLS/uL
  ABSOLUTE MONOCYTE: 329.67 CELLS/uL
  ABSOLUTE SEGMENTED NEUTROPHIL: 1592.33 CELLS/uL
  BASOPHIL: 0%
  EOSINOPHIL: 0.33%
  ERYTHROCYTE COUNT: 5.61 x10E6/uL
  HEMATOCRIT: 34.07%
  HEMOGLOBIN: 13.17 G/DL
  LEUKOCYTE COUNT: 12 x10E3/uL
  LYMPHOCYTE: 84%
  MEAN CORPUSCULAR HEMOGLOBIN: 23.57 pg
  MEAN CORPUSCULAR HEMOGLOBIN CONCENTRATION: 38.7 G/DL
  MEAN CORPUSCULAR VOLUME: 60.93 fL
  MONOCYTE: 2.67%
  NEUTROPHIL: 13%
  NUCLEATED RED BLOOD CELLS: 0 /100WBC
  PLATELET COUNT: 1046.67 x10E3/uL
  ALANINE AMINOTRANSFERASE: 66.67 u/L
  ALBUMIN: 3.93 G/DL
  ALKALINE PHOSPHATASE: 358 u/L
  ASPARTATE AMINOTRANSFERASE: 93.67 u/L
  BLOOD UREA NITROGEN: 17 mg/dL
  CARBON DIOXIDE: 25.33 mmol/L
  CHLORIDE: 101.33 MEQ/L
  CHOLESTEROL: 73 mg/dL
  CREATINE PHOSPHOKINASE: 357 u/L
  CREATININE: 0.21 mg/dL
  GLUCOSE: 146.67 mg/dL
  LACTATE DEHYDROGENASE: 503.33 u/L
  LIPASE: 11 u/L
  PHOSPHORUS: 13.67 mg/dL
  POTASSIUM: 6.19 MEQ/L
  SODIUM: 143.5 MEQ/L
  TOTAL BILIRUBIN: 0.17 mg/dL
  TOTAL PROTEIN: 5.8 G/DL
  URIC ACID: 1.47 mg/dL
[2]
  ABSOLUTE BASOPHIL: 0 CELLS/uL
  ABSOLUTE EOSINOPHIL: 0 CELLS/uL
  ABSOLUTE LYMPHOCYTE: 11413 CELLS/uL
  ABSOLUTE MONOCYTE: 402.33 CELLS/uL
  ABSOLUTE SEGMENTED NEUTROPHIL: 1784.67 CELLS/uL
  BASOPHIL: 0%
  EOSINOPHIL: 0%
  ERYTHROCYTE COUNT: 5.87 x10E6/uL
  HEMATOCRIT: 34.33%
  HEMOGLOBIN: 13.57 G/DL
  LEUKOCYTE COUNT: 13.6 x10E3/uL
  LYMPHOCYTE: 84%
  MEAN CORPUSCULAR HEMOGLOBIN: 23.17 pg
  MEAN CORPUSCULAR HEMOGLOBIN CONCENTRATION: 39.53 G/DL
  MEAN CORPUSCULAR VOLUME: 58.53 fL
  MONOCYTE: 3%
  NEUTROPHIL: 13%
  NUCLEATED RED BLOOD CELLS: 0 /100WBC
  PLATELET COUNT: 1088.67 x10E3/uL
  ALANINE AMINOTRANSFERASE: 57.33 u/L
  ALBUMIN: 4.37 G/DL
  ALKALINE PHOSPHATASE: 445.33 u/L
  ASPARTATE AMINOTRANSFERASE: 99.67 u/L
  BLOOD UREA NITROGEN: 19 mg/dL
  CARBON DIOXIDE: 31.33 mmol/L
  CHLORIDE: 95.33 MEQ/L
  CHOLESTEROL: 61 mg/dL
  CREATINE PHOSPHOKINASE: 435 u/L
  CREATININE: 0.17 mg/dL
  GLUCOSE: 145 mg/dL
  LACTATE DEHYDROGENASE: 606.67 u/L
  LIPASE: 10.33 u/L
  PHOSPHORUS: 11.6 mg/dL
  POTASSIUM: 5.78 MEQ/L
  SODIUM: 141.37 MEQ/L
  TOTAL BILIRUBIN: 0.13 mg/dL
  TOTAL PROTEIN: 6.37 G/DL
  URIC ACID: 1.6 mg/dL
[3]
  ABSOLUTE BASOPHIL: 0 CELLS/uL
  ABSOLUTE EOSINOPHIL: 117 CELLS/uL
  ABSOLUTE LYMPHOCYTE: 9651 CELLS/uL
  ABSOLUTE MONOCYTE: 117 CELLS/uL
  ABSOLUTE SEGMENTED NEUTROPHIL: 6315 CELLS/uL
  BASOPHIL: 0%
  EOSINOPHIL: 0.67%
  ERYTHROCYTE COUNT: 6 x10E6/uL
  HEMATOCRIT: 37.07%
  HEMOGLOBIN: 14.33 G/DL
  LEUKOCYTE COUNT: 16.2 x10E3/uL
  LYMPHOCYTE: 57.67%
  MEAN CORPUSCULAR HEMOGLOBIN: 23.93 pg
  MEAN CORPUSCULAR HEMOGLOBIN CONCENTRATION: 38.67 G/DL
  MEAN CORPUSCULAR VOLUME: 62 fL
  MONOCYTE: 0.67%
  NEUTROPHIL: 41%
  NUCLEATED RED BLOOD CELLS: 0 /100WBC
  PLATELET COUNT: 1193.33 x10E3/uL
  ALANINE AMINOTRANSFERASE: 118.67 u/L
  ALBUMIN: 3.1 G/DL
  ALKALINE PHOSPHATASE: 333 u/L
  ASPARTATE AMINOTRANSFERASE: 517.33 u/L
  BLOOD UREA NITROGEN: 95 mg/dL
  CARBON DIOXIDE: 24 mmol/L
  CHLORIDE: 100 MEQ/L
  CHOLESTEROL: 98.67 mg/dL
  CREATINE PHOSPHOKINASE: 1977.67 u/L
  CREATININE: 1.67 mg/dL
  GLUCOSE: 129.67 mg/dL
  LACTATE DEHYDROGENASE: 1234.67 u/L
  LIPASE: 10 u/L
  PHOSPHORUS: 17.23 mg/dL
  POTASSIUM: 5.62 MEQ/L
  SODIUM: 140.85 MEQ/L
  TOTAL BILIRUBIN: 0.2 mg/dL
  TOTAL PROTEIN: 5.9 G/DL
  URIC ACID: 1.93 mg/dL
[4]
  ABSOLUTE BASOPHIL: 0 CELLS/uL
  ABSOLUTE EOSINOPHIL: 37.4 CELLS/uL
  ABSOLUTE LYMPHOCYTE: 15678.4 CELLS/uL
  ABSOLUTE MONOCYTE: 350.8 CELLS/uL
  ABSOLUTE SEGMENTED NEUTROPHIL: 1413.4 CELLS/uL
  BASOPHIL: 0%
  EOSINOPHIL: 0.2%
  ERYTHROCYTE COUNT: 6.14 x10E6/uL
  HEMATOCRIT: 35.74%
  HEMOGLOBIN: 13.9 G/DL
  LEUKOCYTE COUNT: 17.48 x10E3/uL
  LYMPHOCYTE: 89.8%
  MEAN CORPUSCULAR HEMOGLOBIN: 22.62 pg
  MEAN CORPUSCULAR HEMOGLOBIN CONCENTRATION: 38.88 G/DL
  MEAN CORPUSCULAR VOLUME: 58.22 fL
  MONOCYTE: 2%
  NEUTROPHIL: 8%
  NUCLEATED RED BLOOD CELLS: 0.2 /100WBC
  PLATELET COUNT: 1031.8 x10E3/uL
  ALANINE AMINOTRANSFERASE: 34.8 u/L
  ALBUMIN: 3.62 G/DL
  ALKALINE PHOSPHATASE: 233.8 u/L
  ASPARTATE AMINOTRANSFERASE: 68.4 u/L
  BLOOD UREA NITROGEN: 19.4 mg/dL
  CARBON DIOXIDE: 30.2 mmol/L
  CHLORIDE: 98.6 MEQ/L
  CHOLESTEROL: 99.6 mg/dL
  CREATINE PHOSPHOKINASE: 347.4 u/L
  CREATININE: 0.2 mg/dL
  GLUCOSE: 143.4 mg/dL
  LACTATE DEHYDROGENASE: 272.4 u/L
  LIPASE: 9.2 u/L
  PHOSPHORUS: 10.48 mg/dL
  POTASSIUM: 5.5 MEQ/L
  SODIUM: 142.72 MEQ/L
  TOTAL BILIRUBIN: 0.1 mg/dL
  TOTAL PROTEIN: 5.84 G/DL
  URIC ACID: 1.34 mg/dL
